From patent publication US10702524B2, “Use of a compound in repairing nerve injury” (priority 2017, dated 2020)
Entries after “also recorded” stand apart in the source; their conditions may differ.

Legend:
[1] = system: Glial Fibrillary Acidic Protein (GFAP); test: GFAP frozen-section immunofluorescence (glial scar), rat spinal cord injury model; type: in vivo
Method: (§1) Animal models of acute spinal cord injury experiment were established by using an IMPACTOR MODEL-II spinal cord injury striking system. Sixty female Wistar rats with the age from 8 to 10 weeks and the weight from 230 to 250 g were divided into three groups with 20 rats in each group: a sham-surgery operated group, a control group (spinal cord injury group) and an experimental group, respectively. At 15 minutes before striking injury, the rats in the experimental group were injected with the compound of the formula (I) at a dose of 15 mg/kg body weight.
2. Testing Glial Fibrillary Acidic Protein (GFAP) Expression by Frozen-Section Immunofluorescence Histochemical Method
At 48 hours after injury, the spinal cord tissues were subjected to GFAP immunofluorescent staining.

[2] = system: spinal cord tissues; test: HE staining of spinal cord tissues (void, inflammatory cells), rat spinal cord injury model; type: in vivo
Method: as §1
No spinal cord structure destroy was observed on the rats in the sham-surgery operated group. In the control group, significant changes occurred, mainly including hemorrhage, infiltration with a large number of inflammatory cells and spinal cord structural disorder, and it was observed that in grey matter, a large number of cells were lost, while in the white matter, significant swelling of neurites was observed and axonal terminals were in sphere.

[3] = system: NEUN(+) neuron cells; test: NEUN immunohistochemical staining (neuron survival), rat spinal cord injury model; type: in vivo; conditions: 48 hours and 2 weeks after injury; experimental group vs control group
Method: as §1
At 48 hours and 2 weeks after injury, respectively, the three groups of rat spinal cord tissues were subjected to NEUN immunohistochemical staining.

[4] = system: spinal cord tissues; test: TUNEL staining of spinal cord tissues (cell apoptosis), rat spinal cord injury model; type: in vivo; conditions: 48 hours after injury; 15 mg/kg; difference between control group and experimental group
Method: as §1
(§2) At 6 hours, 24 hours, 48 hours, 7 days, 14 days, 28 days and 56 days after injury, respectively, the rat spinal cord tissues were sampled for the Western Blot test and TUNEL staining, so as to test the inhibiting function of the compound of the formula (I) against the cell apoptosis at the spinal cord injury sites.
At 48 hours after injury, TUNEL staining was performed on three groups of spinal cord tissues. TUNEL-stained positive cells were located in the gray matter and white matter of the spinal cords, and the cell nuclei was stained brown-yellow and mostly distributed in the center of the injure and the margin thereof. […]

[5] = system: Caspase 3; test: Caspase 3 expression of spinal cord tissue by Western Blot, rat spinal cord injury model; type: in vivo; conditions: 15 mg/kg, experimental group vs control group, gray level analysis
Method: as §1, §2

[6] = system: IL-1β; test: IL-1β expression of spinal cord tissue by Western Blot, rat spinal cord injury model; type: in vivo; conditions: 15 mg/kg, experimental group vs control group, gray level analysis
Method: as §1
(§3) At 6 hours, 24 hours, 48 hours, 7 days, 14 days, and 28 days after injury, respectively, the rat spinal cord tissues were sampled for the Western Blot test, so as to test the inhibiting function of the compound of the formula (I) against the pro-inflammatory cytokines at the spinal cord injury sites.

[7] = system: oligodendrocytes; test: CNpase immunohistochemical staining (oligodendrocyte survival), rat spinal cord injury model; type: in vivo
Method: as §1
At 48 hours and 2 weeks after injury, respectively, the three groups of spinal cord tissues were subjected to CNpase immunohistochemical staining.

[8] = system: ICAM1; test: ICAM1 expression of spinal cord tissue by Western Blot, rat spinal cord injury model; type: in vivo; conditions: 15 mg/kg injected 15 minutes before striking injury, experimental group vs control group, gray level analysis
Method: as §1, §3

[9] = system: TNF-α; test: TNF-α expression of spinal cord tissue by Western Blot, rat spinal cord injury model; type: in vivo; conditions: 15 mg/kg, experimental group vs control group, gray level analysis
Method: as §1, §3

[10] = system: rats after spinal cord injury; test: BBB score of motor function of rear limbs after spinal cord injury; type: in vivo, rat; conditions: comparison between experimental group and control group
Method: as §1
Motor function of rear limbs of the tested animals were evaluated by scoring with BBB (Basso Beattie Bresnahan locomotor rating scale, BBB). The BBB scoring was one of internationally recognized objective standards regarding nerve functions of rats after spinal cord injury. In the project, the motor function of rear limbs of the rats was evaluated from 1 day before injury to 8 weeks after injury by double-blind independent observations and records with two persons and finally statistical analyses.

CC(C)(C)OC(=O)c1ccc(NC23CC4CC(CC(C4)C2)C3)c(/N=C\c2cncnc2)c1 [compound of the formula (I)]
GFAP fluorescence ([1]; 2 weeks after surgery, control group vs experimental group): control group was still stronger than the experimental group
quantity of the formed glial scars (GFAP immunofluorescent staining) ([1]; 48 hours after injury, experimental group vs control group): significantly decreased as compared to the control group
area of voids (HE staining) ([2]; 8 weeks after spinal cord injury, control group compared to experimental group): significantly increased as compared to that in the experimental group
inflammatory cells (HE staining, high magnification) ([2]; 8 weeks after spinal cord injury, experimental group vs control group): significantly reduced
HE staining changes (hemorrhage, inflammatory cell infiltration, spinal cord structural disorder) ([2]; 48 hours after injury, 200×, 15 mg/kg, vs control group): could significantly alleviate the above series of changes
histopathological scores ([2]; 48 hours after injury, comparison between control group and experimental group): did not have statistical significance
NEUN(+) neuron cells [3]: more positive cells were present in the experimental group
survival rate of neuron cells [3]: higher than that in the control group
quantity of TUNEL-stained positive cells [4]: had a statistical significance (p<0.05)
Caspase 3 expression ([5]; 2 weeks after injury): significantly decreased
Caspase 3 expression ([5]; 48 hours after injury): significantly decreased
IL-1β expression ([6]; 2 weeks after injury): significantly decreased
IL-1β expression ([6]; 48 hours after injury): significantly decreased, close to the level of the shame-surgery operated group
CNpase positive area and positive cells ([7]; 2 weeks after injury, experimental group vs control group): had a larger positive area and more positive cells
CNpase positive area ([7]; 48 hours after injury, vs sham-surgery operated group): did not markedly differ from that in the shame-surgery operated group
survival rate of the oligodendrocytes ([7]; experimental group vs control group): higher than that in the control group
ICAM1 expression ([8]; 2 weeks after injury): significantly decreased
ICAM1 expression ([8]; 48 hours after injury): significantly decreased
TNF-α expression ([9]; 2 weeks after injury): significantly decreased
TNF-α expression ([9]; 48 hours after injury): decreased, close to the level of the shame-surgery operated group
BBB score ([10]; 1 week after injury): did not have any statistical significance (p>0.05)
BBB score ([10]; 2 weeks after injury): had a statistical significance (p<0.05)
BBB score ([10]; 8 weeks after injury): had a statistical significance (p<0.01); also recorded: significantly higher than that of the control group
BBB score ([10]; 48 hours after injury): did not have any statistical significance (p>0.05)
